Assay results as given in patent US12448394B2, “Heterocyclic pyrazole derivatives as type III receptor tyrosine kinase inhibitors” (DEVELOPMENT CENTER FOR BIOTECHNOLOGY, priority 2019, dated 2025).

Legend:
[1] = biological target: T1, PDGFRα kinase (Homo sapiens, UniProt P16234); assay: PDGFRα kinase assay (AlphaScreen); format: biochemical; conditions: read-out: Ranking of IC50 values, PDGFRα
T1 construct: purchased SignalChem
Outline: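 IC50 values came from duplicate serial dilutions, with product read by AlphaScreen. The reaction ran 30 min at 30 °C, then EDTA stop: 1.5 ng recombinant enzyme, biotin-poly(Glu4:Tyr1) substrate, 10 μM ATP, 10 mM MOPS pH 7.0, 10 mM MgCl2.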

[2] = biological target: T2, MET kinase (Homo sapiens, UniProt P08581); assay: MET kinase assay (AlphaScreen, counter screen); format: biochemical; conditions: read-out: Ranking of IC50 values, MET
T2 construct: purchased SignalChem
T2 sequence (P08581 25-1390): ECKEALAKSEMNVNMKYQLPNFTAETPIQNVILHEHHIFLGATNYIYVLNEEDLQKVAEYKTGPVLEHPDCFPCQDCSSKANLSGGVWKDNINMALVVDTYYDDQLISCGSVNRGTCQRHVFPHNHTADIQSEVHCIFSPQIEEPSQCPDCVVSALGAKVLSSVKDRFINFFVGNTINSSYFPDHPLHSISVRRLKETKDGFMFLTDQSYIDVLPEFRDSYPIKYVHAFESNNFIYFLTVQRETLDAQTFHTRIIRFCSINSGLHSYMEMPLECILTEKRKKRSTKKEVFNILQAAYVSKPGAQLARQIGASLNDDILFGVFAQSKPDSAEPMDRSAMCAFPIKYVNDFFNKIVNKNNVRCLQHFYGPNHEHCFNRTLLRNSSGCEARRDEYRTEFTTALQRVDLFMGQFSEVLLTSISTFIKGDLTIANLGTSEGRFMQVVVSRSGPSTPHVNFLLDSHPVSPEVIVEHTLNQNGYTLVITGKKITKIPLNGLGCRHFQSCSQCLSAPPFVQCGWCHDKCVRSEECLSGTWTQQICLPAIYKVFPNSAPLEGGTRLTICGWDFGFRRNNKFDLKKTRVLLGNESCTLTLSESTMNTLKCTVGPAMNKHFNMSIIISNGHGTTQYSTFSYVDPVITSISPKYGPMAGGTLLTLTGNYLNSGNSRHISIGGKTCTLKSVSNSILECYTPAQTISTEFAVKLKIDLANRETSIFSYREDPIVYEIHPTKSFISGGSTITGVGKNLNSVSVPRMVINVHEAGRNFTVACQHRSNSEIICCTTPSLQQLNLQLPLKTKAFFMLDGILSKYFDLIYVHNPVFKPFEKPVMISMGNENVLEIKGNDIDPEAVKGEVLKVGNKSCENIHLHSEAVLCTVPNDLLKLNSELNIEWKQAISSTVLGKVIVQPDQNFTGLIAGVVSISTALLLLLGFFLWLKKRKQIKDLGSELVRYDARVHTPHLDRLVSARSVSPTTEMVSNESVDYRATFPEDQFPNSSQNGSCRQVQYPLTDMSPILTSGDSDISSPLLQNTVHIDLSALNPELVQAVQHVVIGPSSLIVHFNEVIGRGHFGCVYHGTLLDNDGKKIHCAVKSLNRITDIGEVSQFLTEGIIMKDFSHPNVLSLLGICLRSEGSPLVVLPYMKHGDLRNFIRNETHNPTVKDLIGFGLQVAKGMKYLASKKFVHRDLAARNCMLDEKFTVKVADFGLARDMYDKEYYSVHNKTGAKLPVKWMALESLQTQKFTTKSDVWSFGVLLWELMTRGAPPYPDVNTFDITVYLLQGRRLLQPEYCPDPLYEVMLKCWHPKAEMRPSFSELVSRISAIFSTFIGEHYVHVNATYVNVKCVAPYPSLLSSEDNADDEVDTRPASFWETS
Outline: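 IC50 came from duplicate serial dilutions, with AlphaScreen detection of phosphorylated biotin-poly(Glu4:Tyr1). The reaction used 1 ng recombinant MET, 10 µM ATP […], and MOPS pH 7.0/MgCl2 buffer, ran 45 min at 30 °C, and was quenched with EDTA.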

[3] = system: MV4-11 human acute myeloid leukemia cell with FLT3-ITD mutation; assay: MV4-11 cell proliferation assay (CellTiter 96); format: cell-based; conditions: Homo sapiens, MV4-11, 72 h, MV4-11 cells, 72 hours treatment, CellTiter96; read-out: anti-proliferation activity MV4-11 (FLT3-ITD), IC50 ranking
Outline: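 Cells seeded at 6500/well in IMDM with 10% heat-inactivated FBS, left overnight at 37 °C, 5% CO2, then exposed to increasing compound concentrations for 72 h. Viability read as absorbance at 490 nm after 2–4 h with CellTiter96 AQueous One reagent.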

[4] = system: THP-1 human acute monocytic leukemia cell with NRAS G12D mutation; assay: THP-1 cell proliferation assay (counter screen); format: cell-based; conditions: Homo sapiens, THP-1 cells, 72 hours treatment, CellTiter96, read-out: anti-proliferation activity THP-1 NRAS N12D, IC50 ranking
Outline: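 Viability measured as 490 nm absorbance after 2–4 h with CellTiter96 AQueous One reagent, following 72 h treatment with rising compound concentrations. THP-1 cells, 5000/well, grown in RPMI 1640 with 10% FBS and 0.05 mM 2-mercaptoethanol at 37° C, 5% CO2, plated overnight before dosing.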

[5] = system: A375 melanoma cell with BRAF V600E mutation; assay: A375 cell proliferation assay (counter screen); format: cell-based, human; conditions: Homo sapiens, A-375, A375 cells, 72 hours treatment, CellTiter96, read-out: anti-proliferation activity A375 BRAF V600E, IC50 ranking
Outline: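 A375 cells (BRAF V600E) seeded at 2000 cells/well in DMEM with 10% FBS, settled overnight at 37° C, 5% CO2, then exposed to increasing compound concentrations for 72 hours. Viability read by MTS-type CellTiter96 AQueous reagent, absorbance at 490 nm after 2–4 hours.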

[6] = system: HCC827 NSCLC cell with EGFR exon 19 deletion mutation; assay: HCC827 cell proliferation assay (counter screen); format: cell-based, human; conditions: Homo sapiens, HCC827 cells, 72 hours treatment, CellTiter96, read-out: anti-proliferation activity HCC827 EGFR Exon19 del, IC50 ranking
Outline: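 HCC827 cells (EGFR exon 19 deletion) were seeded at 8000 cells/well in RPMI1640 with 10% FBS, then exposed to increasing compound concentrations for 72 h at 37 °C. Viability was read by CellTiter96 AQueous One (MTS), absorbance 490 nm after 2–4 h.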

T1 sequence (P16234 24-1089): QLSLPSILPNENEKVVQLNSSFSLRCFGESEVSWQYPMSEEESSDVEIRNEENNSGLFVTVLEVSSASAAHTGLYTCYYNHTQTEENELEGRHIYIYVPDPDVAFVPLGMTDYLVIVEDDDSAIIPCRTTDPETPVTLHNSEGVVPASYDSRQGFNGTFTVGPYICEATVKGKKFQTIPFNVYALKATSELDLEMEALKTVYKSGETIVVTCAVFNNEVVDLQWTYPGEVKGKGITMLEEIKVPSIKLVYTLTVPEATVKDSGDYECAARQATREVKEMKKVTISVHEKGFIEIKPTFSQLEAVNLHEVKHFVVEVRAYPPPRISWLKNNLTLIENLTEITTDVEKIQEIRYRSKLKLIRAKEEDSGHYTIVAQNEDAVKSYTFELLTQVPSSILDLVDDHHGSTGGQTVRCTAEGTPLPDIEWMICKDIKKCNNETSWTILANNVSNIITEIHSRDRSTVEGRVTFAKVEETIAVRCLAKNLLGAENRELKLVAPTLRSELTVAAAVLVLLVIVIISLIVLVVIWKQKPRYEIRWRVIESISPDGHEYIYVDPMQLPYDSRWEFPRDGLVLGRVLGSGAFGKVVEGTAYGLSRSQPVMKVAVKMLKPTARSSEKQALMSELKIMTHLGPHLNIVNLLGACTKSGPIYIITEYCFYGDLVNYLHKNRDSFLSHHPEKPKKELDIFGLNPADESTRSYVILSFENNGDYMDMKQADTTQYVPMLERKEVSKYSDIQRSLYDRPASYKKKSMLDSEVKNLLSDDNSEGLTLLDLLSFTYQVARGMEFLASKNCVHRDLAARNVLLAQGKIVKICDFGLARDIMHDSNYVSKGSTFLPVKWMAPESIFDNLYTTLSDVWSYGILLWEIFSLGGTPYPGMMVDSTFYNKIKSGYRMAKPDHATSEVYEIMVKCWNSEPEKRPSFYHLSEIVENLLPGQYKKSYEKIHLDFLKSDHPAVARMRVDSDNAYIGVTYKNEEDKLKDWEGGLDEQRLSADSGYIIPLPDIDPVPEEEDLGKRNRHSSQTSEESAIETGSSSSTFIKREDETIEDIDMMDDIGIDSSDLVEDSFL

| SMILES | IC50 [1] | IC50 [2] | IC50 [3] | IC50 [4] | IC50 [5] | IC50 [6] |
| --- | --- | --- | --- | --- | --- | --- |
| COc1ccc(-c2cc3c(s2)Cc2c(-c4ccc5[nH]ncc5c4)n[nH]c2-3)cn1 [Compound 1, 3-(1H-indazol-5-yl)-6-(6-methoxypyridin-3-yl)-1,4-dihydrothieno[2′,3′:4,5] cyclopenta[1,2-c]pyrazole] | 0.01 to 0.03 µM | > 1 µM | 0.03 to 0.1 µM | > 10 µM | > 10 µM | > 10 µM |
| COc1ccc(-c2cc3c(s2)Cc2c(-c4ccc5cn[nH]c5c4)n[nH]c2-3)cn1 [Compound 2, 3-(1H-indazol-6-yl)-6-(6-methoxypyridin-3-yl)-1,4-dihydrothieno[2′,3′:4,5] cyclopenta[1,2-c]pyrazole] | 0.01 to 0.03 µM | > 1 µM | 0.03 to 0.1 µM | > 10 µM | > 10 µM | > 10 µM |
| Nc1ccc(-c2cc3c(s2)Cc2c(-c4ccc5cn[nH]c5c4)n[nH]c2-3)cn1 [Compound 3, 5-(3-(1H-indazol-6-yl)-1,4-dihydrothieno[2′,3′:4,5]cyclopenta[1,2-c]pyrazol-6-yl)pyridin-2-amine] | 0.001 to 0.01 µM | > 1 µM | < 0.03 µM | > 10 µM | > 10 µM | > 10 µM |
| COc1ccc(-c2cc3c(s2)Cc2c(-c4ccc5cnn(C)c5c4)n[nH]c2-3)cn1 [Compound 4, 6-(6-methoxypyridin-3-yl)-3-(1-methyl-1H-indazol-6-yl)-1,4-dihydrothieno [2′,3′:4,5]cyclopenta[1,2-c] pyrazole] | 0.01 to 0.03 µM | > 1 µM | 0.1 to 0.3 µM | > 10 µM | > 10 µM | > 10 µM |
| Cc1ccc(-c2cc3c(s2)Cc2c(-c4ccc5cn[nH]c5c4)n[nH]c2-3)cn1 [Compound 30, 3-(1H-indazol-6-yl)-6-(6-methylpyridin-3-yl)-1,4-dihydrothieno[2′,3′:4,5] cyclopenta[1,2-c]pyrazole] | 0.001 to 0.01 µM | > 1 µM | 0.03 to 0.1 µM | > 10 µM | > 10 µM | > 10 µM |
| Cc1ccc(-c2cc3c(s2)Cc2c(-c4ccc5[nH]ncc5c4)n[nH]c2-3)cn1 [Compound 36, 3-(1H-indazol-5-yl)-6-(6-methylpyridin-3-yl)-1,4-dihydrothieno[2′,3′:4,5] cyclopenta[1,2-c]pyrazole] | 0.001 to 0.01 µM | > 1 µM | < 0.03 µM | > 10 µM | > 10 µM | > 10 µM |
| Nc1ccc(-c2cc3c(s2)Cc2c(-c4ccc5[nH]ncc5c4)n[nH]c2-3)cn1 [Compound 40, 5-(3-(1H-indazol-5-yl)-1,4-dihydrothieno [2′,3′:4,5]cyclopenta [1,2-c]pyrazol-6-yl) pyridin-2-amine] | 0.001 to 0.01 µM | > 1 µM | < 0.03 µM | 1 to 10 µM | 1 to 10 µM | 1 to 10 µM |
| Cn1ncc2ccc(-c3n[nH]c4c3Cc3sc(-c5ccc(CN6CCOC6=O)cc5)cc3-4)cc21 [Compound 62, 3-(4-(3-(1-methyl-1H-indazol-6-yl)-1,4-dihydro-thieno[2′,3′:4,5]cyclopenta [1,2-c]pyrazol-6-yl)benzyl)oxazolidin-2-one] | 0.01 to 0.03 µM | > 1 µM | < 0.03 µM | > 10 µM | > 10 µM | > 10 µM |
| Cc1n[nH]c2cc(-c3n[nH]c4c3Cc3sc(-c5ccc(CN6CCOCC6)cc5)cc3-4)ccc12 [Compound 81, 4-(4-(3-(3-methyl-1H-indazol-6-yl)-1,4-dihydro-thieno[2′,3′:4,5]cyclopenta [1,2-c]pyrazol-6-yl)benzyl)morpholine] | 0.001 to 0.01 µM | > 1 µM | 0.1 to 0.3 µM | 1 to 10 µM | 1 to 10 µM | > 10 µM |
| Cn1ncc2ccc(-c3n[nH]c4c3Cc3sc(-c5ccc(N6CCOCC6)nc5)cc3-4)cc21 [Compound 82, 4-(5-(3-(1-methyl-1H-indazol-6-yl)-1,4-dihydro-thieno[2′,3′:4,5]cyclopenta [1,2-c]pyrazol-6-yl)pyridin-2-yl)morpholine] | 0.1 to 0.3 µM | > 1 µM | 0.1 to 0.3 µM | > 10 µM | 1 to 10 µM | > 10 µM |
| CN1CCN(Cc2ccc(-c3cc4c(s3)Cc3c(-c5ccc6cn[nH]c6c5)n[nH]c3-4)cc2)CC1 [Compound 83, 3-(1H-indazol-6-yl)-6-(4-((4-methylpiperazin-1-yl)methyl)phenyl)-1,4-dihydrothieno[2′,3′:4,5] cyclopenta[1,2-c]pyrazole] | 0.001 to 0.01 µM | 0.3 to 1 µM | < 0.03 µM | > 10 µM | > 10 µM | > 10 µM |
| CN1CCN(Cc2ccc(-c3cc4c(s3)Cc3c(-c5ccc6cnn(C)c6c5)n[nH]c3-4)cc2)CC1 [Compound 84, 3-(1-methyl-1H-indazol-6-yl)-6-(4-((4-methylpiperazin-1-yl)methyl)phenyl)-1,4-dihydrothieno [2′,3′:4,5]cyclopenta [1,2-c]pyrazole] | 0.001 to 0.01 µM | > 1 µM | < 0.03 µM | > 10 µM | > 10 µM | > 10 µM |
| CN1CCN(c2ccc(-c3cc4c(s3)Cc3c(-c5ccc6cnn(C)c6c5)n[nH]c3-4)cn2)CC1 [Compound 85, 3-(1-methyl-1H-indazol-6-yl)-6-(6-(4-methyl-piperazin-1-yl)pyridin-3-yl)-1,4-dihydrothieno [2′,3′:4,5]cyclopenta [1,2-c]pyrazole] | 0.001 to 0.01 µM | 0.3 to 1 µM | < 0.03 µM | > 10 µM | 1 to 10 µM | > 10 µM |
| Cn1ncc2ccc(-c3n[nH]c4c3Cc3sc(-c5ccnc(Cl)c5)cc3-4)cc21 [Compound 86, 6-(2-chloropyridin-4-yl)-3-(1-methyl-1H-indazol-6-yl)-1,4-dihydrothieno [2′,3′:4,5]cyclopenta [1,2-c]pyrazole] | 0.01 to 0.03 µM | > 1 µM | 0.03 to 0.1 µM | > 10 µM | > 10 µM | > 10 µM |
| CN1CCN(c2cc(-c3cc4c(s3)Cc3c(-c5ccc6cnn(C)c6c5)n[nH]c3-4)ccn2)CC1 [Compound 87, 3-(1-methyl-1H-indazol-6-yl)-6-(2-(4-methyl-piperazin-1-yl)pyridin-4-yl)-1,4-dihydrothieno [2′,3′:4,5]cyclopenta [1,2-c]pyrazole] | 0.001 to 0.01 µM | 0.3 to 1 µM | 0.03 to 0.1 µM | > 10 µM | > 10 µM | > 10 µM |
| Cn1ncc2ccc(-c3n[nH]c4c3Cc3sc(-c5ccc(CN6CCOCC6)c(F)c5F)cc3-4)cc21 [Compound 88, 4-(2,3-difluoro-4-(3-(1-methyl-1H-indazol-6-yl)-1,4-dihydrothieno [2′,3′:4,5]cyclopenta [1,2-c]pyrazol-6-yl)benzyl)morpholine] | 0.03 to 0.1 µM | > 1 µM | 0.3 to 1 µM | > 10 µM | > 10 µM | > 10 µM |
| Cn1nnc2ccc(-c3n[nH]c4c3Cc3sc(-c5ccc(CN6CCOCC6)cc5)cc3-4)cc21 [Compound 89, 4-(4-(3-(1-methyl-1H-benzo[d][1,2,3]triazol-6-yl)-1,4-dihydrothieno [2′,3′:4,5]cyclopenta [1,2-c]pyrazol-6-yl)benzyl)morpholine] | 0.001 to 0.01 µM | > 1 µM | 0.03 to 0.1 µM | > 10 µM | > 10 µM | > 10 µM |
| Cn1ncc2ccc(-c3n[nH]c4c3Cc3sc(-c5ccc(CN6CCOCC6)cc5OC(F)(F)F)cc3-4)cc21 [Compound 90, 4-(4-(3-(1-methyl-1H-indazol-6-yl)-1,4-dihydro-thieno[2′,3′:4,5]cyclopenta [1,2-c]pyrazol-6-yl)-3-(trifluoromethoxy)benzyl) morpholine] | 0.1 to 0.3 µM | > 1 µM | 0.3 to 1 µM | > 10 µM | > 10 µM | > 10 µM |
